This assay concerns the target TAK1/TAB1 (Homo sapiens, UniProt O43318). As to the kind of experiment: Inhibition of kinase tracer-236 binding to full length recombinant human His-tagged TAK1-TAB1 expressed in baculovirus by FRET assay.
Chain of TAK1/TAB1 (Q15750 whole entry): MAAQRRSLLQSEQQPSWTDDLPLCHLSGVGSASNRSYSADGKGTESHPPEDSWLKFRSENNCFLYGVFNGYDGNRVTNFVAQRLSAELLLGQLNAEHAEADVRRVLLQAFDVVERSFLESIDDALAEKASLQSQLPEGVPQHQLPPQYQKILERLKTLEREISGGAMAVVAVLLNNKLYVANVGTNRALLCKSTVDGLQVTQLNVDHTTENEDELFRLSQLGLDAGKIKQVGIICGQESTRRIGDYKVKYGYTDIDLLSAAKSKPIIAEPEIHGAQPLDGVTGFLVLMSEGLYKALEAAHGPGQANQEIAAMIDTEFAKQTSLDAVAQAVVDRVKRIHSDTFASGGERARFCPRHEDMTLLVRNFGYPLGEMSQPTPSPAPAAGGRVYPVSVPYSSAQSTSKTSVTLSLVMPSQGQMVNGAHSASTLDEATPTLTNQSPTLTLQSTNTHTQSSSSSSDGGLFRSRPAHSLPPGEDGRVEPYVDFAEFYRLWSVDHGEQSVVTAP
Chain of TAK1/TAB1 (O43318 whole entry): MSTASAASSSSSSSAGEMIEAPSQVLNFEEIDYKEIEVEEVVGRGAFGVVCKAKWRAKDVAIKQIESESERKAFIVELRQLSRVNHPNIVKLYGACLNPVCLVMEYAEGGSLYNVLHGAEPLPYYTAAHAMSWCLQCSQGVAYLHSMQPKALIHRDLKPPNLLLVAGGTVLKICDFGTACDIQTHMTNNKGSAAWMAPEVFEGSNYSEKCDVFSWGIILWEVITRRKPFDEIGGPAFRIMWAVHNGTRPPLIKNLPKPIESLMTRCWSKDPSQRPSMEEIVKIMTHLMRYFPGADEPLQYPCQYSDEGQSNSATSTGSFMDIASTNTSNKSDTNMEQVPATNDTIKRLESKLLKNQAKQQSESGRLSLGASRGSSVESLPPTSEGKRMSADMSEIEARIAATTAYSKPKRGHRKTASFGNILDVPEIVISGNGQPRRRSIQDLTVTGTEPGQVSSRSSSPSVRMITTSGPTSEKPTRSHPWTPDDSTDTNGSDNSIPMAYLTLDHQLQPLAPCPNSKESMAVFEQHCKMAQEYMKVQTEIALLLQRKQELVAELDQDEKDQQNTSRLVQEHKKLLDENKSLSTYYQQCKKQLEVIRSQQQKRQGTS
One may read the IC50 as the concentration at which inhibition is half-maximal. Turning to `CC(=O)c1c[nH]c2ncnc(OCC(C)C)c12`, the IC50 amounted to 1700 nM. Then `N#C/C=C/c1c[nH]c2ncnc(OCc3ccccc3)c12`, with 330 nM; and `CC(C)COc1ncnc2[nH]cc(C#CC(N)=O)c12`, with 7 nM; and `COC(=O)/C(C)=C/c1c[nH]c2ncnc(OCC(C)C)c12`, with 430 nM. Then `NC(=O)/C=C/c1c[nH]c2ncnc(OCc3cccc(F)c3)c12`, with 51 nM.

The values are drawn from ChEMBL document CHEMBL3879912, “4-alkoxy/aralkoxy-5-substituted-pyrrolopyrimidine compounds as TAK1 inhibitors in disease treatment” (2014).
